Data set [1] is described as follows: in vivo. The conditions noted are these: CD-1, mouse, iv, 1 mg/kg.
Data set [2] can be described thus: in vivo. The conditions noted are these: CD-1, mouse, plasma, po, 5 mg/kg.
The nature of data set [3]: in vivo. The following applies: CD-1, mouse, po, 5 mg/kg.
Data set [4] in a line: in vitro. The conditions noted are these: dog, MDCK.
Data set [5] can be described thus: in vivo. The following applies: nude, mouse, po, 5 mg/kg.
Data set [6] is described as follows: in vivo. The conditions noted are these: nude, mouse, po, 5 mg/kg. This is another data set of the same source.
Data set [7] can be described thus: in vivo. The following applies: nude, mouse, plasma, po, 5 mg/kg.
A short description of data set [8]: in vivo. The following applies: nude, mouse, po, 5 mg/kg. This is another data set of the same source.
Data set [9] in a line: in vivo. The conditions noted are these: nude, mouse, iv, 1 mg/kg.
Data set [10] is described as follows: in vivo. The following applies: nude, mouse, po, 30 mg/kg.
A short description of data set [11]: in vivo. The following applies: nude, mouse, po, 30 mg/kg. The source holds these as a separate data set.
Data set [12] in a line: in vivo. The following applies: nude, mouse, plasma, po, 30 mg/kg.
A short description of data set [13]: in vivo. The following applies: nude, mouse, po, 100 mg/kg.
A short description of data set [14]: in vivo. The conditions noted are these: nude, mouse, po, 100 mg/kg. This is another data set of the same source.
Data set [15] in a line: in vivo. The conditions noted are these: nude, mouse, plasma, po, 100 mg/kg.
Data set [16] in a line: in vivo. The following applies: nude, mouse, po, 100 mg/kg. This is another data set of the same source.
Data set [17] in a line: in vivo. The conditions noted are these: nude, mouse, po, 150 mg/kg.
A short description of data set [18]: in vivo. The conditions noted are these: nude, mouse, po, 150 mg/kg. The source holds these as a separate data set.
A short description of data set [19]: in vivo. The conditions noted are these: nude, mouse, plasma, po, 150 mg/kg.
Data set [20] in a line: in vivo. The following applies: nude, mouse, po, 150 mg/kg. This is another data set of the same source.
A short description of data set [21]: in vivo. The following applies: rat, po, 5 mg/kg.
Data set [22] is described as follows: in vivo. The following applies: rat, po, 5 mg/kg. The source holds these as a separate data set.
Data set [23] can be described thus: in vivo. The following applies: rat, plasma, po, 5 mg/kg.
Data set [24] is described as follows: in vivo. The conditions noted are these: rat, po, 5 mg/kg. This is another data set of the same source.
Data set [25] in a line: in vivo. The following applies: rat, iv, 1 mg/kg.
The nature of data set [26]: in vivo. The conditions noted are these: dog, po, 5 mg/kg.
Data set [27] can be described thus: in vivo. The following applies: dog, po, 5 mg/kg. This is another data set of the same source.
Data set [28] can be described thus: in vivo. The conditions noted are these: dog, plasma, po, 5 mg/kg.
Data set [29] in a line: in vivo. The conditions noted are these: dog, po, 5 mg/kg. The source holds these as a separate data set.
Data set [30] is described as follows: in vivo. The following applies: dog, iv, 2 mg/kg.
Data set [31] can be described thus: in vivo. The conditions noted are these: cynomolgus monkey, po, 5 mg/kg.
Data set [32] is described as follows: in vivo. The following applies: cynomolgus monkey, po, 5 mg/kg. The source holds these as a separate data set.
Data set [33] in a line: in vivo. The conditions noted are these: cynomolgus monkey, plasma, po, 5 mg/kg.
Data set [34] is described as follows: in vivo. The following applies: cynomolgus monkey, po, 5 mg/kg. The source holds these as a separate data set.
Data set [35] can be described thus: in vivo. The conditions noted are these: cynomolgus monkey, iv, 2 mg/kg.

Molecules are shown by their SMILES.

A word on the clearance: it is a measure of how efficiently the substance is removed, as volume per time. A low value points to a low capacity for elimination. The AUC is the area under the concentration-time curve, a measure of exposure. Lower therefore signals low exposure. The Papp A→B is the apparent permeability from the apical to the basolateral side of a cell layer. Read a high Papp A→B as ready permeation. `O=c1cc(-c2ccnc(NC3CCOCC3)n2)ccn1[C@H](CO)c1cccc(Cl)c1` returned a clearance in data set [1] of 114 mL/min/kg. For the same compound, in data set [2], the area under the curve (AUC) was 0.59 µM·h. Moreover, in data set [3], the bioavailability was 38%. In data set [4], this compound gave a Papp A→B of 8.5 ×10⁻⁶ cm/s.

In turn, `O=c1cc(-c2ccnc(NC3CCOCC3)n2)ccn1[C@H](CO)c1cccc(F)c1` displayed a clearance in [1] of 39 mL/min/kg. The AUC in [2] came out at 1.72 µM·h. The bioavailability in [3] was 36%. Besides, the Papp A→B in data set [4] was 5.5 ×10⁻⁶ cm/s.

The Cmax is the maximum level reached in the sampled fluid or tissue. A word on the half-life: it is the time in which the quantity being followed falls by half. Low values mean fast loss, high ones slow loss. `O=c1cc(-c2ccnc(NC3CCOCC3)n2)ccn1[C@H](CO)c1ccc(Cl)c(F)c1`: the clearance in [1] stood at 33 mL/min/kg; in data set [9], 40 mL/min/kg; in data set [25] it was 39 mL/min/kg; in data set [30] it was 18 mL/min/kg; in data set [35], 12 mL/min/kg. The AUC in data set [2] came out at 3.05 µM·h; in data set [7], 5.4 µM·h; in [12], 46.8 µM·h; in data set [15], 129 µM·h; in data set [19] it was 175 µM·h; in data set [23], 2.15 µM·h. Also, the AUC came to 4.87 µM·h in [28] and 3.3 µM·h in data set [33]. Besides, the bioavailability stood at 66% in data set [3]; 139% in [8]; 139% in data set [16]; 127% in data set [20]; 44% in [24]; 46% in [29]. Moreover, the bioavailability in data set [34] is 22%. Also, the Cmax in [5] came out at 3.12 µM; in data set [10], 20.2 µM; in data set [13] it was 38.9 µM; in data set [17], 67.7 µM; in data set [21], 1490 nM; in [26], 2910 nM. In data set [31], this compound showed a Cmax of 980 nM. Also, the half-life in data set [6] was 211 min; in data set [11] it was 140 min; in data set [14], 103 min; in data set [18] it was 118 min; in data set [22], 69.6 min; in data set [27] it was 93 min. Moreover, the half-life in data set [32] is 143 min. Besides, in data set [4], the Papp A→B came to 11.3 ×10⁻⁶ cm/s.

For the compound `O=c1cc(-c2ccnc(NC3CCOCC3)n2)ccn1[C@H](CO)c1ccc(F)c(Cl)c1`, the clearance in data set [1] was found to be 63 mL/min/kg. In addition, the exposure (AUC) in data set [2] was determined as 2.18 µM·h. For the same compound, the bioavailability in data set [3] was found to be 76%. Also, the Papp A→B in data set [4] was 4.6 ×10⁻⁶ cm/s.

(Values after ChEMBL document CHEMBL3407455, “Discovery of highly potent, selective, and efficacious small molecule inhibitors of ERK1/2” (J Med Chem, 2015).)
